Assay results from patent publication US20250186391A1, “ORAL COMPLEMENT FACTOR D INHIBITORS” (BioCryst Pharmaceuticals, Inc., priority 2019, published 2025).

Target: Factor D (Homo sapiens (Human), UniProt P00746)
Experiment: Factor D esterolytic assay
Format: biochemical
Settings: Z-Lys-SBzl substrate, 100 mM HEPES, 500 mM NaCl, pH 7.5, 10% DMSO; tested a minimum of three times; read-out: Measured Ki (IC50) Value for Compounds: IC50
Summary of the method: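 Buffer was 100 mM HEPES, 500 mM NaCl, pH 7.5 with 10% DMSO. Compound and Factor D were combined, then Z-Lys-SBzl (1.29 mM) was added either at once or following room-temperature incubation. Rates came from DTNB colour at 405 nm minus 690 nm over 600 s, with percent inhibition giving IC50 over at least three tests.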

Chain of Factor D (P00746 26-253): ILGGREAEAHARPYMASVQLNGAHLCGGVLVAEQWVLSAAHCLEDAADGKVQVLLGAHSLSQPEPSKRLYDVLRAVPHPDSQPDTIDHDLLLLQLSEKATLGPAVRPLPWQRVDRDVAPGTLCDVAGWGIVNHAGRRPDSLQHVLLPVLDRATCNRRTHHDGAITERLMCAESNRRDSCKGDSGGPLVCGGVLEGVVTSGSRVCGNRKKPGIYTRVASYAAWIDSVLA

| IC50 [µM] | SMILES |
| --- | --- |
| < 1 | NCc1cccc(-c2cc(CN3CC[C@H](F)C3)c3occ(COc4ccccc4CC(=O)O)c3c2)c1 [Compound 180d, (S)-2-(2-((5-(3-(aminomethyl)phenyl)-7-((3-fluoropyrrolidin-1-yl)methyl)benzofuran-3-yl)methoxy)phenyl)acetic acid] |
| < 1 | NCc1cccc(-c2cc(CN3CCC(F)(F)C3)c3occ(COc4ccccc4CC(=O)O)c3c2)c1 [Compound 181f, 2-(2-((5-(3-(aminomethyl)phenyl)-7-((3,3-difluoropyrrolidin-1-yl)methyl)benzofuran-3-yl)methoxy)phenyl)acetic acid] |
| < 1 | CC(C)n1nc(COc2ccccc2CC(=O)O)c2cc(-c3cccc(CN)c3)ccc21 [Compound 182e, 2-(2-((5-(3-(aminomethyl)phenyl)-1-isopropyl-1H-indazol-3-yl)methoxy)phenyl)acetic acid] |
| < 1 | CC(C)n1nc2ccc(-c3cccc(CN)c3)cc2c1COc1ccccc1CC(=O)O [Compound 183e, 2-(2-((5-(3-(aminomethyl)phenyl)-2-isopropyl-2H-indazol-3-yl)methoxy)phenyl)acetic acid] |
| < 1 | Cn1nc2ccc(-c3cccc(CN)c3)cc2c1COc1ccccc1CC(=O)O [Compound 184e, 2-(2-((5-(3-(aminomethyl)phenyl)-2-methyl-2H-indazol-3-yl)methoxy)phenyl)acetic acid] |
| < 1 | COc1ccc(CC(=O)O)c(OCc2nn(C)c3ccc(-c4cccc(CN)c4)cc23)c1 [Compound 185c, 2-(2-((5-(3-(aminomethyl)phenyl)-1-methyl-1H-indazol-3-yl)methoxy)-4-methoxyphenyl)acetic acid] |
| < 1 | CC(C(=O)O)c1ccccc1OCc1coc2c(NCC3CCCC3)cc(-c3cccc(CN)c3)cc12 (centres unmarked) [Compound 186c, 2-(2-((5-(3-(aminomethyl)phenyl)-7-((cyclopentylmethyl)amino)benzofuran-3-yl)methoxy)phenyl)propanoic acid] |
| < 1 | NCc1cccc(-c2cc(NCc3cccnc3)c3occ(COc4ccccc4CC(=O)O)c3c2)c1 [Compound 187d, 2-(2-((5-(3-(aminomethyl)phenyl)-7-((pyridin-3-ylmethyl)amino)benzofuran-3-yl)methoxy)phenyl)acetic acid] |
| < 1 | NCc1cccc(-c2cc(NC3CCCC3)c3occ(COc4ccccc4CC(=O)O)c3c2)c1 [Compound 188d, 2-(2-((5-(3-(aminomethyl)phenyl)-7-(cyclopentylamino)benzofuran-3-yl)methoxy)phenyl)acetic acid] |
| < 1 | NCc1cccc(-c2cc(-c3cccc(CN)c3)c3occ(COc4ccccc4CC(=O)O)c3c2)c1 [Compound 189c, 2-(2-((5,7-bis(3-(aminomethyl)phenyl)benzofuran-3-yl)methoxy)phenyl)acetic acid] |
| < 1 | CC(C)c1ccc(CC(=O)O)c(OCc2coc3ccc(-c4cccc(CN)c4)cc23)c1 [Compound 190f, 2-(2-((5-(3-(aminomethyl)phenyl)benzofuran-3-yl)methoxy)-4-isopropylphenyl)acetic acid] |
| < 1 | NCc1cccc(-c2ccc3occ(COc4cc(Br)ccc4CC(=O)O)c3c2)c1 [Compound 192b, 2-(2-((5-(3-(aminomethyl)phenyl)benzofuran-3-yl)methoxy)-4-bromophenyl)acetic acid] |
| 1 to 10 | NCc1cccc(-c2cc(Cl)cc3c(COc4ccccc4CC(=O)O)coc23)c1 [Compound 193b, 2-(2-((7-(3-(aminomethyl)phenyl)-5-chlorobenzofuran-3-yl)methoxy)phenyl)acetic acid] |
| < 1 | NCc1cccc(-c2cc(Oc3ccccc3)c3occ(COc4ccccc4CC(=O)O)c3c2)c1 [Compound 194f, 2-(2-((5-(3-(aminomethyl)phenyl)-7-phenoxybenzofuran-3-yl)methoxy)phenyl)acetic acid] |
| < 1 | NCc1cccc(-c2cc(OCc3ccccn3)c3occ(COc4ccccc4CC(=O)O)c3c2)c1 [Compound 195f, 2-(2-((5-(3-(aminomethyl)phenyl)-7-(pyridin-2-ylmethoxy)benzofuran-3-yl)methoxy)phenyl)acetic acid] |
| < 1 | NCc1cccc(-c2cc(OCc3nccs3)c3occ(COc4ccccc4CC(=O)O)c3c2)c1 [Compound 196f, 2-(2-((5-(3-(aminomethyl)phenyl)-7-(thiazol-2-ylmethoxy)benzofuran-3-yl)methoxy)phenyl)acetic acid] |
| < 1 | Cc1cccc(-c2cc(-c3cccc(CN)c3)cc3c(COc4ccccc4CC(=O)O)coc23)c1 [Compound 197c, 2-(2-((5-(3-(aminomethyl)phenyl)-7-(m-tolyl)benzofuran-3-yl)methoxy)phenyl)acetic acid] |
| < 1 | Cn1ccc(COc2cc(-c3cccc(CN)c3)cc3c(COc4ccccc4CC(=O)O)coc23)n1 [Compound 198f, 2-(2-((5-(3-(aminomethyl)phenyl)-7-((1-methyl-1H-pyrazol-3-yl)methoxy)benzofuran-3-yl)methoxy)phenyl)acetic acid] |

| IC50 [µM] | SMILES |
| --- | --- |
| < 1 | Cn1cncc1COc1cc(-c2cccc(CN)c2)cc2c(COc3ccccc3CC(=O)O)coc12 [Compound 199f, 2-(2-((5-(3-(aminomethyl)phenyl)-7-((1-methyl-1H-imidazol-5-yl)methoxy)benzofuran-3-yl)methoxy)phenyl)acetic acid] |
| < 1 | Cc1oc2ccc(-c3cccc(CN)c3)cc2c1COc1cc(F)ccc1CC(=O)O [Compound 200c, 2-(2-((5-(3-(aminomethyl)phenyl)-2-methylbenzofuran-3-yl)methoxy)-4-fluorophenyl)acetic acid] |
| < 1 | COc1ccc(CC(=O)O)c(OCc2c(C)oc3ccc(-c4cccc(CN)c4F)cc23)c1 [Compound 201b, 2-(2-((5-(3-(aminomethyl)-2-fluorophenyl)-2-methylbenzofuran-3-yl)methoxy)-4-methoxyphenyl)acetic acid] |
| < 1 | CCc1ccc(CC(=O)O)c(OCc2c(C)oc3ccc(-c4cccc(CN)c4)cc23)c1 [Compound 202c, 2-(2-((5-(3-(aminomethyl)phenyl)-2-methylbenzofuran-3-yl)methoxy)-4-ethylphenyl)acetic acid] |
| < 1 | COc1ccc(CC(=O)O)c(OCc2c(C)oc3ccc(-c4ccnc(CN)c4)cc23)c1 [Compound 203d, 2-(2-((5-(2-(aminomethyl)pyridin-4-yl)-2-methylbenzofuran-3-yl)methoxy)-4-methoxyphenyl)acetic acid] |
| < 1 | NCc1cccc(-c2ccc3oc(F)c(COc4ccccc4CC(=O)O)c3c2)c1 [Compound 204c, 2-(2-((5-(3-(aminomethyl)phenyl)-2-fluorobenzofuran-3-yl)methoxy)phenyl)acetic acid] |
| < 1 | COC[C@H]1CCCN1Cc1cc(-c2cccc(CN)c2)cc2c(COc3ccccc3CC(=O)O)coc12 [Compound 205d, (R)-2-(2-((5-(3-(aminomethyl)phenyl)-7-((2-(methoxymethyl)pyrrolidin-1-yl)methyl)benzofuran-3-yl)methoxy)phenyl)acetic acid] |
| < 1 | Cc1ccc(CC(=O)O)c(OCc2nn(C)c3ccc(-c4cccc(CN)c4)cc23)c1 [Compound 206c, 2-(2-((5-(3-(aminomethyl)phenyl)-1-methyl-1H-indazol-3-yl)methoxy)-4-methylphenyl)acetic acid] |
| < 1 | NCc1cccc(-c2cc(CN3CCC3)c3occ(COc4ccccc4CC(=O)O)c3c2)c1 [Compound 207d, 2-(2-((5-(3-(aminomethyl)phenyl)-7-(azetidin-1-ylmethyl)benzofuran-3-yl)methoxy)phenyl)acetic acid] |
| < 1 | C[C@@H]1CN(Cc2cc(-c3cccc(CN)c3)cc3c(COc4ccccc4CC(=O)O)coc23)C[C@H](C)O1 [Compound 208d, 2-(2-((5-(3-(aminomethyl)phenyl)-7-(((2R,6S)-2,6-dimethylmorpholino)methyl)benzofuran-3-yl)methoxy)phenyl)acetic acid] |
| < 1 | NCc1cccc(-c2cc(CNCC3CC3)c3occ(COc4ccccc4CC(=O)O)c3c2)c1 [Compound 209c, 2-(2-((5-(3-(aminomethyl)phenyl)-7-(((cyclopropylmethyl)amino)methyl)benzofuran-3-yl)methoxy)phenyl)acetic acid] |
| < 1 | COc1ccc(CC(=O)O)c(OCc2c3cc(-c4cccc(CN)c4)ccc3nn2C)c1 [Compound 210c, 2-(2-((5-(3-(aminomethyl)phenyl)-2-methyl-2H-indazol-3-yl)methoxy)-4-methoxyphenyl)acetic acid] |
| < 1 | Cc1ccc(CC(=O)O)c(OCc2c3cc(-c4cccc(CN)c4)ccc3nn2C)c1 [Compound 211c, 2-(2-((5-(3-(aminomethyl)phenyl)-2-methyl-2H-indazol-3-yl)methoxy)-4-methylphenyl)acetic acid] |
| < 1 | NCc1cccc(-c2ccc3nnc(COc4ccccc4CC(=O)O)n3c2)c1 [Compound 212d, 2-(2-((6-(3-(aminomethyl)phenyl)-[1,2,4]triazolo[4,3-a]pyridin-3-yl)methoxy)phenyl)acetic acid] |
| < 1 | COc1ccc(CC(=O)O)c(OCc2nn(C(C)C)c3ccc(-c4cccc(CN)c4)cc23)c1 [Compound 213c, 2-(2-((5-(3-(aminomethyl)phenyl)-1-isopropyl-1H-indazol-3-yl)methoxy)-4-methoxyphenyl)acetic acid] |
| < 1 | COc1ccc(CC(=O)O)c(OCc2c(CO)oc3ccc(-c4cccc(CN)c4)cc23)c1 [Compound 214c, 2-(2-((5-(3-(aminomethyl)phenyl)-2-(hydroxymethyl)benzofuran-3-yl)methoxy)-4-methoxyphenyl)acetic acid] |
| < 1 | COc1ccc(CC(=O)O)c(OCc2c(C(F)F)oc3ccc(-c4cccc(CN)c4)cc23)c1 [Compound 215d, 2-(2-((5-(3-(aminomethyl)phenyl)-2-(difluoromethyl)benzofuran-3-yl)methoxy)-4-methoxyphenyl)acetic acid] |
